Values joined by “and” are separate entries in the source; they are usually repeats but may differ in a detail not shown here. Identical values can stand only once. Like-named read-outs stand apart in the source and are kept apart here.

Series [1] is described as follows: Solubility in AlphaMEM + 5% FBS, pH 7.4. The settings on record: culture medium (AlphaMEM + 5% FBS), pH 7.4, plasma or biological fluid, kinetic from dmso stock.
Series [2] concerns SiHa cells. The experiment in a line: IC50 assay (inhibition of proliferation, 4 h exposure, SRB). As to conditions: Homo sapiens, SiHa, 4 h. The protocol: (§1) Cells were seeded in 96-well plates (SiHa or FaDu 1500 cells/well, UT-SCC-74B 800 cells/well) in 100 μL. After incubation for 2 h, the drugs were added in 50 μL of the same titrated medium at 3× the final concentration to duplicate the wells. After a further 4 h the plates were checked for drug precipitation using a phase contrast microscope, then drugs were removed by aspirating and washing with the standard (pH 7.4) medium, then aspirating again and adding 150 μL of the medium. Cultures were then grown for 5 days before staining with sulphorhodamine B and measuring absorbance, with the estimation of IC50 values using 4-parameter logistic regression, as previously carried out.
The medium and plasticware was equilibrated in the chamber for 3 days prior to use. In the anoxia experiments, FaDu cells were plated in poly-L-lysine coated plates (Corning Cat # 356461) to improve attachment.
Cells were subsequently grown under standard cell culture conditions (oxia, pHe 7.4) for 5 days before staining with sulforhodamine B (SRB). […] (B) SN30000 (2). (C) BTO acid 4a. Values are means and errors are ranges for duplicate cultures in a single experiment. Fitted curves are 4-parameter logistic regressions. PCR = pH cytotoxicity ratio. ACR = anoxia cytotoxicity ratio. TMR = tumor microenvironment ratio.

Series [3] relates to FaDu cells. The series is described as above. Type of series: cell-based. The settings on record: Homo sapiens, 4 h.
Series [4] concerns UT-SCC-74B cells. The series is described as above. The settings on record: for IC50: Homo sapiens, 4 h; for IC50 / PCR Anoxic (IC50 at pHe 7.4/IC50 at pHe 6.5) / PCR oxic (IC50 at pHe 7.4/IC50 at pHe 6.5): UT-SCC-74B. In kind it is cell-based. The protocol: as §1
The medium and plasticware was equilibrated in the chamber for 3 days prior to use. In the anoxia experiments, FaDu cells were plated in poly-L-lysine coated plates (Corning Cat # 356461) to improve attachment. […]
Footnotes: a Number of experiments. b Anoxic cytotoxicity ratio = oxic IC50/anoxic IC50. c pH
cytotoxicity ratio = IC50 at pHe 7.4/ IC50 at pHe 6.5. d Overall ratio = oxic IC50 pHe 7.4 / anoxic IC50 pHe
6.5. Values are means and errors are SEM. For ratios, the errors are root mean square SEM. […]

The test system of series [5] is SiHa cells. In words: IC50 assay modified for chronic hypoxia (oxia, hypoxia, anoxia). Type of series: cell-based. The settings on record: for IC50: Homo sapiens. The procedure:
There are relatively few viable cells in tumors at O2 concentrations as low as in the above anoxic experiments. In addition, extensive changes in gene expression occur under chronic exposure to intermediate O2 concentrations (chronic hypoxia), including the expression of proteins that regulate pHi. […] Therefore, oxic and anoxic exposures were also tested in these same experiments. The 24 h adaptation to hypoxia had little effect on the subsequent growth of the cultures at either pHe value (Figure S6).
To minimize problems with poor cell attachment under chronic hypoxia, the drugs were added from a 3-fold dilution series made in a separate plate, rather than by serial dilution in the plates containing the cells. In addition, the drugs were removed after the 4 h exposure by centrifuging the plates (200g × 5 min) prior to each aspiration. The same modifications were used for the oxic drug exposures in these experiments.

For `COC(=O)CCc1n[n+]([O-])c2ccc(C)cc2[n+]1[O-]` [Compound 6b, 3-(3-Methoxy-3-oxopropyl)-6-methylbenzo[e][1,2,4]triazine 1,4-Dioxide], the melting point fell in the range of 166 to 168 °C. In addition, the solubility in series [1] is > 900 µM.

`Cc1ccc2c(c1)[n+]([O-])nc(NCCCC(=O)O)[n+]2[O-]` (hydrate or solvate) [Compound 12a, 3-((3-Carboxypropyl)amino)-7-methylbenzo[e][1,2,4]triazine 1,4-Dioxide] displayed a melting point of 185 to 188 °C.

For `O=C(O)CCCc1ccc(N(CCCl)CCCl)cc1` [Compound 1, chlorambucil], the IC50 amounted to 3.78 ± 1.51 µM in series [2] (read-out: Anoxic IC50, SiHa, pHe 6.5, 4 h, anoxic); 13.6 ± 1.1 µM in series [2] (read-out: Anoxic IC50, SiHa, pHe 7.4, 4 h, anoxic); 1.58 ± 0.27 µM in series [2] (read-out: Oxic IC50, SiHa, pHe 6.5, 4 h, oxic); 12.7 ± 1.2 µM in series [2] (read-out: Oxic IC50, SiHa, pHe 7.4, 4 h, oxic); 2.26 ± 0.37 µM in series [3] (pHe 6.5, 4 h, anoxic, read-out: Anoxic IC50); 3.19 ± 0.78 µM in series [3] (pHe 6.5, 4 h, oxic, read-out: Oxic IC50). Further, the IC50 turned out to be 13.1 ± 8.7 µM in series [3] (pHe 7.4, 4 h, anoxic, read-out: Anoxic IC50); 15 ± 1.6 µM in series [3] (pHe 7.4, 4 h, oxic, read-out: Oxic IC50); 0.8 ± 0.17 µM in series [4] (pHe 6.5, 4 h, 20% O2, read-out: Oxic IC50); 0.85 ± 0.06 µM in series [4] (pHe 6.5, 4 h, <0.01% O2, read-out: Anoxic IC50); 6.34 ± 0.88 µM in series [4] (pHe 7.4, 4 h, 20% O2, read-out: Oxic IC50); 5.05 ± 0.38 µM in series [4] (pHe 7.4, 4 h, <0.01% O2, read-out: Anoxic IC50). For the same molecule, the IC50 in series [5] (0.2% O2 (24 h before and during 4 h exposure), pHe 6.5) was 1.75 ± 0.44 µM; in series [5] (0.2% O2 (24 h before and during 4 h exposure), pHe 7.4) it was 17.3 ± 2.53 µM; in series [5] (4 h, 20% O2, pHe 6.5, 4 h), 1.84 ± 0.48 µM; in series [5] (4 h, 20% O2, pHe 7.4, 4 h), 12 ± 2 µM; in series [5] (4 h, <0.01% O2, pHe 6.5, 4 h), 1.49 ± 0.18 µM; in series [5] (4 h, <0.01% O2, pHe 7.4, 4 h) it was 11 ± 2.1 µM. The “ACR (oxic IC50/anoxic IC50)” value in series [4] was 1.26 ± 0.20 and 0.94 ±0.21. Besides, the “PCR Anoxic (IC50 at pHe 7.4/IC50 at pHe 6.5)” value in series [4] (listed as CHL) is 5.9; in series [4] (listed as CHL (1)), 5.94 ± 0.61. Besides, the “PCR oxic (IC50 at pHe 7.4/IC50 at pHe 6.5)” value in series [4] (listed as CHL) came out at 7.9; in series [4] (listed as CHL (1)), 7.93 ± 2.01. Besides, the “PCR (IC50 for pHe 7.4/IC50 for pHe 6.5)” value in series [5] (0.2% O2) worked out at 9.9 ± 2.8; in series [5] (20% O2) it was 6.5 ± 2.0; in series [5] (<0.01% O2), 7.40 ± 1.64. The “ACR (IC50 for 20% O2/IC50 for <0.01% O2)” value is on record as 1.23 ± 0.34 in series [5] (pHe 6.5) and 1.09 ± 0.27 in series [5] (pHe 7.4). Also, the entries for the “HCR (IC50 for 20% O2/IC50 for 0.2% O2)” value in series [5] (pHe 6.5) and in series [5] (pHe 7.4) were 1.05 ± 0.38 and 0.69 ± 0.15, respectively.

The term melting point denotes the temperature, or range, at which the solid turns liquid. A word on the solubility: it is the concentration that dissolves in the medium under given conditions. As a reminder, the IC50 is the concentration that gives 50% inhibition.
